{
  "source": "paper PMC3360951",
  "about": "(Chemistry & biology, 2008)",
  "key": {"PSA [1]": {"biological_target": "T1, PSA (Homo sapiens, UniProt P07288)", "T1 sequence (P07288 25-261)": "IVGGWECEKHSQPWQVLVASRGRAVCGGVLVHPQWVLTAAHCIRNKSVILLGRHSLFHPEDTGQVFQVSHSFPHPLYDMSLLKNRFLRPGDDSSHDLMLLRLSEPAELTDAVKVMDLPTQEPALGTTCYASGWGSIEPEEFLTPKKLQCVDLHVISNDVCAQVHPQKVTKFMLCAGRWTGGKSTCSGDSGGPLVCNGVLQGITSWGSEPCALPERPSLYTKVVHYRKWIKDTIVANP", "test": "PSA activity assay, inhibition kinetics by progress curves", "assay_type": "biochemical"}, "chymotrypsin": {"test_system": "chymotrypsin", "test": "Protease specificity: chymotrypsin + suc-AAF-AMC", "assay_type": "biochemical"}, "trypsin": {"test_system": "trypsin", "test": "Protease specificity: trypsin + Bz-R-AMC", "assay_type": "biochemical"}, "[2]": {"biological_target": "dipeptidyl peptidase 4 (DPP-4) (Homo sapiens, UniProt P27487)", "sequence (P27487 whole entry, species assumed)": "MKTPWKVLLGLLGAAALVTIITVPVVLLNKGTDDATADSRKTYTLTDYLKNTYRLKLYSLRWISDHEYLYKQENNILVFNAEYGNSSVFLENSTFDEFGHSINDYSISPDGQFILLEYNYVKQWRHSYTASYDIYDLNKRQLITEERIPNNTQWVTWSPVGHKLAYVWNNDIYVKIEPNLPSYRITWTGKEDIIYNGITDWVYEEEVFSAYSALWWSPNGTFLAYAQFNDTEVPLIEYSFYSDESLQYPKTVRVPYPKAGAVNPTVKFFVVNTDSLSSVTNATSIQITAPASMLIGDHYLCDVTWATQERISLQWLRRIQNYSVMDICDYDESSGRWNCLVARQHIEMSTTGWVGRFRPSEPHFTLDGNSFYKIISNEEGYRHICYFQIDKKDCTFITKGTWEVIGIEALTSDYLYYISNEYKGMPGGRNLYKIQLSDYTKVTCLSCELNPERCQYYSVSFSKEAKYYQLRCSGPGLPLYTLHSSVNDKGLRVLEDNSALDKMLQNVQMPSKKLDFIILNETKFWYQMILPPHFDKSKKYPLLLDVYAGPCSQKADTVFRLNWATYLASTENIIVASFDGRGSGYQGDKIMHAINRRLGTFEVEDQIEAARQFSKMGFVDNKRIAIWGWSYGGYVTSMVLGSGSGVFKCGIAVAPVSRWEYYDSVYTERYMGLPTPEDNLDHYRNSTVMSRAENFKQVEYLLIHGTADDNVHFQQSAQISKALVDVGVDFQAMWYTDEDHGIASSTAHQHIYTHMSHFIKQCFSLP", "test": "Protease specificity: DPP-4 + AP-AFC", "assay_type": "biochemical"}, "cathepsin B": {"biological_target": "cathepsin B (Homo sapiens, UniProt P07858)", "test": "Protease specificity: cathepsin B + Z-RR-AMC", "assay_type": "biochemical", "conditions": "in words; over a range of concentrations"}, "cathepsin D": {"biological_target": "cathepsin D (Bos taurus, UniProt P80209)", "sequence (P80209 45-390)": "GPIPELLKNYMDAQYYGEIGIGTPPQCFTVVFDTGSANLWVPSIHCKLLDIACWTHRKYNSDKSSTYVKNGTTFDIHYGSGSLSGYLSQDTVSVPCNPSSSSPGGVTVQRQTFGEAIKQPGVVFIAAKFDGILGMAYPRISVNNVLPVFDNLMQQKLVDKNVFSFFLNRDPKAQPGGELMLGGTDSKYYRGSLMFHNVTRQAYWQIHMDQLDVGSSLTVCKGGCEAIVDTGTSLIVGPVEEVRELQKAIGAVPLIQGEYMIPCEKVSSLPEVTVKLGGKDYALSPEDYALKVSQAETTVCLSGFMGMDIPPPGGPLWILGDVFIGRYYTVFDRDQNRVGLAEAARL", "test": "Protease specificity: Cathepsin D Assay Kit", "assay_type": "biochemical", "conditions": "in words; over a range of concentrations"}, "elastase": {"test_system": "elastase", "test": "Protease specificity: elastase + suc-AAPV-AMC", "assay_type": "biochemical"}, "[3]": {"test_system": "LNCaP, LAPC-4, CWR22R, C4-2B, DU145, PC3 human prostate cancer cell lines", "test": "MTT growth assay, panel of prostate cancer cell lines", "assay_type": "cell-based", "conditions": "100 nM; cells attached 24 hr before exposure"}, "[4]": {"test_system": "PSA-positive LNCaP human prostate cancer cells", "test": "Clonal survival assay, LNCaP", "assay_type": "cell-based", "conditions": "compared to vehicle-treated control"}, "[5]": {"test_system": "PSA-negative TSU human bladder cancer cells", "test": "Clonal survival assay, TSU", "assay_type": "cell-based", "conditions": "under these same conditions (100 nM, 1 μM)"}, "PSA [6]": {"biological_target": "T1, PSA", "conditions": "500 nM inhibitor, 37°C, western blot"}, "PSA [7]": {"biological_target": "T1, PSA", "conditions": "1.5 μM inhibitor, 2 nM PSA, 37°C, 1 hr"}, "[8]": {"test": "Initial toxicologic studies, intravenous doses in mice", "assay_type": "in vivo, mouse"}, "[9]": {"test_system": "CWR22R-H PSA-producing human prostate cancer xenograft", "test": "Serum free and total PSA per gram of tumor in CWR22R-H xenograft mice", "assay_type": "in vivo", "conditions": "over the 10 day period between PSA measurements; 33 mg/kg/dose x 6"}, "[10]": {"test_system": "CWR22R-H PSA-producing human prostate cancer xenograft", "test": "Growth of subcutaneous CWR22R-H xenografts", "conditions": "33 mg/kg/dose iv x 6 doses (46: equimolar doses); significant only at day 6"}, "[11]": {"conditions": "compared to full-length Z-SSKLL-H"}},
  "note": "pKi: −log10 of the molar value.",
  "data": [
    {"substance": "Z-SSKL(boro)L [compound 39]", "values": [
      {"measurement": "fold higher Ki for PSA", "setting": "PSA [1]; compared to Z-SSL(boro)L", "result": "~ 8 fold"},
      {"measurement": "Selectivity", "setting": "PSA [1]; relative to PSA inhibition, PSA itself", "result": 1},
      {"measurement": "fold higher Ki for chymotrypsin than for PSA", "setting": "chymotrypsin", "result": 60, "unit": "fold"},
      {"measurement": "pKi", "setting": "chymotrypsin; chymotrypsin", "result": 5.41},
      {"measurement": "Selectivity", "setting": "chymotrypsin; chymotrypsin relative to PSA inhibition", "result": 60},
      {"measurement": "inhibition of trypsin", "setting": "trypsin; in words", "result": "did not inhibit"},
      {"measurement": "pKi", "setting": "trypsin; trypsin", "result": "< 4.00"},
      {"measurement": "Selectivity", "setting": "trypsin; trypsin relative to PSA inhibition", "result": ">1500"},
      {"measurement": "Selectivity", "setting": "[2]; DPPIV relative to PSA inhibition", "result": ">1500"},
      {"measurement": "inhibition of DPP-4", "setting": "[2]; in words", "result": "did not inhibit"},
      {"measurement": "inhibition of cathepsin B", "setting": "cathepsin B", "result": "no inhibition"},
      {"measurement": "inhibition of cathepsin D", "setting": "cathepsin D", "result": "no inhibition"},
      {"measurement": "selectivity for PSA over elastase", "setting": "elastase", "result": 22, "unit": "times"},
      {"measurement": "pKi", "setting": "elastase; elastase", "result": 5.86},
      {"measurement": "Selectivity", "setting": "elastase; elastase relative to PSA inhibition", "result": 22},
      {"measurement": "inhibition of elastase", "setting": "elastase; in words", "result": "Modest inhibition"},
      {"measurement": "effect on growth of cell lines", "setting": "[3]", "result": "marginal effect"},
      {"measurement": "inhibition of clonal survival", "setting": "[4]; 100 nM", "result": "~ 75%"},
      {"measurement": "inhibition of clonal survival", "setting": "[4]; 1 μM", "result": "~ 85%"},
      {"measurement": "inhibition of clonal survival", "setting": "[5]", "result": "~ 25%"},
      {"measurement": "protection of IGFBP3 from degradation by PSA", "setting": "PSA [6]", "result": "protected IGFBP3 from degradation by PSA"},
      {"measurement": "PSA cleavage of the PTHrP peptide 1-34", "setting": "PSA [7]", "result": "completely inhibited"}
    ]},
    {"substance": "Z-SSKIL-H [compound 4]", "values": [
      {"measurement": "fold higher Ki for PSA", "setting": "PSA [1]; [11]", "result": "~ 6 fold"}
    ]},
    {"substance": "Z-KL(boro)Nle [compound 37]", "values": [
      {"measurement": "fold increase in Ki for PSA", "setting": "PSA [1]; compared to Z-SSKL(boro)Nle", "result": 59, "unit": "fold"}
    ]},
    {"substance": "Z-SSKYL-H [compound 2]", "values": [
      {"measurement": "fold higher Ki for PSA", "setting": "PSA [1]; [11]", "result": "~ 2 fold"}
    ]},
    {"substance": "Z-SKLL-H [compound 8]", "values": [
      {"measurement": "fold higher Ki for PSA", "setting": "PSA [1]; [11]", "result": "~ 6.5 fold"}
    ]},
    {"substance": "Z-SSKLL-CH2OH [compound 26]", "values": [
      {"measurement": "inhibition of PSA", "setting": "PSA [1]; in words", "result": "did not inhibit PSA"}
    ]},
    {"substance": "Z-KL(boro)L [compound 36]", "values": [
      {"measurement": "fold increase in Ki for PSA", "setting": "PSA [1]; compared to Z-SSKL(boro)L", "result": 90, "unit": "fold"}
    ]},
    {"substance": "Mu-SSKL(boro)L", "values": [
      {"measurement": "effect on body weight", "setting": "[8]; dose of 100 mg/kg, mice", "result": "transient weight loss"},
      {"measurement": "lethality (fraction of the mice)", "setting": "[8]; dose of 300 mg/kg", "result": "one-third"},
      {"measurement": "effects on mouse body weight", "setting": "[8]; repeat intravenous doses of 33 mg/kg", "result": "no significant effects"},
      {"measurement": "tolerability", "setting": "[8]; repeat intravenous doses of 33 mg/kg, mice", "result": "well tolerated"},
      {"measurement": "increase of free PSA levels/gram of tumor", "setting": "[9]", "result": 13, "unit": "%"},
      {"measurement": "increase of total PSA levels/gram of tumor", "setting": "[9]", "result": 1.85, "unit": "fold"},
      {"measurement": "effect on tumor volume / tumor growth compared to vehicle control", "setting": "[10]", "result": "slight decrease in tumor volume"}
    ]},
    {"substance": "Z-SSKL(boro)Nle [compound 38]", "values": [
      {"measurement": "fold increase in Ki for PSA", "setting": "PSA [1]; compared to Z-SSKL(boro)L", "result": "~ 5 fold"}
    ]}
  ]
}
